Experiments:
[1] = test system: Bacteroides fragilis ATCC 25285 L1011; assay: MIC by microbroth dilution; type: cell-based; conditions: 0.01% (w/v) BSA, 10^5 CFU/ml, read after 48 h, 37° C., anaerobic N2-CO2-H2, Wilkins-Chalgren broth
Method: (§1) The minimal inhibitory concentration (MIC) has been determined by microbroth dilution methodology, in the presence of 0.01% (w/v) of bovine serum albumin (BSA). BSA is added to the diluent to avoid possible adherence of the compounds of the invention to the plastic surface of the microtiter wells, as disclosed also by B. Goldstein et al., Antimicrobial Agents and Chemotherapy, 37 (1993), 741-745.
(§2) Inocula were 10^4 CFU/ml, except for Propionibacterium acnes and Bacteroides fragilis (10^5 CFU/ml).
(§3) MICs were read after 18-24 h, except for Haemophilus influenzae, P. acnes, B. fragilis (48 h).
(§4) All microorganisms were incubated at 37° C.; H. influenzae in a 5% CO2 atmosphere, anaerobes in a N2 --CO2 --H2 (80:10:10) mixture; other organisms in air.
(§5) The growth media are: Oxoid Iso-Sensitest broth for staphylococci and Enterococcus faecalis); Difco Todd Hewitt broth for streptococci; Difco brain heart infusion broth+1% Difco Supplement C for H. influenzae; Difco Wilkins-Chalgren broth for anaerobes.

[2] = test system: Staph. epidermidis ATCC 12228 L147; assay: MIC by microbroth dilution; type: cell-based; conditions: 0.01% (w/v) BSA, 10^4 CFU/ml, read after 18-24 h, 37° C., Iso-Sensitest broth
Method: as §1, §2, §3, §4, §5

Staph. haemolyticus L602 = assay: MIC by microbroth dilution; type: cell-based; conditions: 0.01% (w/v) BSA, 10^4 CFU/ml, read after 18-24 h, 37° C., Iso-Sensitest broth
Method: as §1, §2, §3, §4, §5

[3] = test system: Staphylococcus aureus L165; assay: MIC by microbroth dilution; type: cell-based; conditions: 0.01% (w/v) BSA, 10^4 CFU/ml, read after 18-24 h, 37° C., Iso-Sensitest broth
Method: as §1, §2, §3, §4, §5

Strept. sanguis L1721 = assay: MIC by microbroth dilution; type: cell-based; conditions: 0.01% (w/v) BSA, 10^4 CFU/ml, read after 18-24 h, 37° C., Todd Hewitt broth
Method: as §1, §2, §3, §4, §5

[4] = test system: Streptococcus pyogenes L49; assay: MIC by microbroth dilution; type: cell-based; conditions: 0.01% (w/v) BSA, 10^4 CFU/ml, read after 18-24 h, 37° C., Todd Hewitt broth
Method: as §1, §2, §3, §4, §5

Strept. pneumoniae L44 = assay: MIC by microbroth dilution; type: cell-based; conditions: 0.01% (w/v) BSA, 10^4 CFU/ml, read after 18-24 h, 37° C., Todd Hewitt broth
Method: BSA is added to the diluent to avoid possible adherence of the compounds of the invention to the plastic surface of the microtiter wells, as disclosed also by B. Goldstein et al., Antimicrobial Agents and Chemotherapy, 37 (1993), 741-745. Inocula were 10^4 CFU/ml, except for Propionibacterium acnes and Bacteroides fragilis (10^5 CFU/ml). MICs were read after 18-24 h, except for Haemophilus influenzae, P. acnes, B. fragilis (48 h). All microorganisms were incubated at 37° C.; H. influenzae in a 5% CO2 atmosphere, anaerobes in a N2 --CO2 --H2 (80:10:10) mixture; other organisms in air. The growth media are: Oxoid Iso-Sensitest broth for staphylococci and Enterococcus faecalis); Difco Todd Hewitt broth for streptococci; Difco brain heart infusion broth+1% Difco Supplement C for H. influenzae; Difco Wilkins-Chalgren broth for anaerobes.

[5] = test system: Enterococc. faecalis ATCC 7080 L149; assay: MIC by microbroth dilution; type: cell-based, Enterococcus faecalis; conditions: 0.01% (w/v) BSA, 10^4 CFU/ml, read after 18-24 h, 37° C., Iso-Sensitest broth
Method: as §1, §2, §3, §4, §5

[6] = test system: Propionibact. acnes ATCC 6919 L1014; assay: MIC by microbroth dilution; type: cell-based, Propionibacterium acnes; conditions: 0.01% (w/v) BSA, 10^5 CFU/ml, read after 48 h, 37° C., anaerobic N2-CO2-H2, Wilkins-Chalgren broth
Method: as §1, §2, §3, §4, §5

[7] = test system: Haemoph. influenzae ATCC 19418 L970; assay: MIC by microbroth dilution; type: cell-based, Haemophilus influenzae; conditions: 0.01% (w/v) BSA, 10^4 CFU/ml, read after 48 h, 37° C., 5% CO2, brain heart infusion broth+1% Supplement C
Method: as §1, §2, §3, §4, §5

Strept. agalactiae L310 = assay: MIC by microbroth dilution; type: cell-based; conditions: 0.01% (w/v) BSA, 10^4 CFU/ml, read after 18-24 h, 37° C., Todd Hewitt broth
Method: as §1, §2, §3, §4, §5

staphylococci isolates = assay: MIC on clinical isolates; type: cell-based; conditions: highest MIC observed
streptococci isolates = assay: MIC on clinical isolates; type: cell-based; conditions: highest MIC observed
enterococci isolates = assay: MIC on clinical isolates; type: cell-based; conditions: highest MIC observed
S. aureus (L819) = assay: experimental septicemia in the mouse; type: in vivo; conditions: immunocompetent CD-1 mice infected i.p.; intravenously once, immediately after infection; survival on the 7th day
Method: (§6) The antimicrobial activity of the compounds of the invention is confirmed also in experimental septicemia in the mouse. Control and treatment groups contain ten CD-1 mice (Charles River) weighing 18-22 g. Two groups of immunocompetent mice are infected intraperitoneally with 0.5 ml of bacterial suspension prepared by diluting an overnight culture of S. aureus ([…]) or S. pyogenes ([…]) with sterile peptonized saline, while one group of neutropenic mice is infected intraperitoneally with 0.5 ml of bacterial suspension prepared by diluting an overnight culture of or E. faecalis ([…]) with sterile peptonized saline. Inocula are adjusted so that untreated animals died of septicemia within 48 h. The compound to be tested is administered intravenously once, immediately after infection with S. aureus, or twice, immediately and 5 hours after infection with S. pyogenes or E. faecalis. On the 7th day, the ED50 in mg/kg is calculated by the method of Spearman and Kraber (D. J. Finney "Statistical Methods in Biological Assay", Griffin, page 524, 1952) from the percentage of surviving animals at each dose.

S. pyogenes (L49) = assay: experimental septicemia in the mouse; type: in vivo; conditions: immunocompetent CD-1 mice infected i.p.; intravenously twice, immediately and 5 hours after infection; survival on the 7th day
Method: as §6

E. faecalis (L1139) = assay: experimental septicemia in the mouse (neutropenic); type: in vivo; conditions: neutropenic CD-1 mice infected i.p.; intravenously twice, immediately and 5 hours after infection; survival on the 7th day
Method: as §6

gram positive bacteria = conditions: described by K. Shimanaka et al.; cited from earlier work

Structure (SMILES)	MIC of the compounds, Staphylococcus aureus L165 [3] [µg/mL]	MIC of the compounds, Strept. sanguis L1721 (Strept. sanguis L1721) [µg/mL]	MIC of the compounds, Streptococcus pyogenes L49 [4] [µg/mL]	MIC of the compounds, Strept. pneumoniae L44 (Strept. pneumoniae L44) [µg/mL]	MIC of the compounds, Strept. agalactiae L310 (Strept. agalactiae L310) [µg/mL]	MIC of the compounds, Bacteroides fragilis ATCC 25285 L1011 [1] [µg/mL]	MIC of the compounds, Staph. epidermidis ATCC 12228 L147 [2] [µg/mL]	MIC of the compounds, Staph. haemolyticus L602 (Staph. haemolyticus L602) [µg/mL]	MIC of the compounds, Enterococc. faecalis ATCC 7080 L149 [5] [µg/mL]	MIC of the compounds, Propionibact. acnes ATCC 6919 L1014 [6] [µg/mL]	MIC of the compounds, Haemoph. influenzae ATCC 19418 L970 [7] [µg/mL]	MIC against staphylococci isolates (staphylococci isolates) [µg/mL]	MIC against streptococci isolates (streptococci isolates) [µg/mL]	MIC against enterococci isolates (enterococci isolates) [µg/mL]	ED50 in experimental septicemia, S. aureus (L819) (S. aureus (L819)) [mg/kg/dose]	ED50 in experimental septicemia, S. pyogenes (L49) (S. pyogenes (L49)) [mg/kg/dose]	ED50 in experimental septicemia, E. faecalis (L1139) (E. faecalis (L1139)) [mg/kg/dose]	antimicrobial activity against gram positive bacteria (gram positive bacteria)
CCN(CC)CCNC(=O)C1CCCN1C(=O)C1COC(c2csc(-c3ccc4c(n3)-c3csc(n3)-c3csc(n3)C(C(O)c3ccccc3)NC(=O)CNC(=O)c3nc(sc3COC)C(C(C)C)NC(=O)c3nc(sc3C)C(CC(=O)NC)NC(=O)c3csc-4n3)n2)=N1 (mixture of isomers) [Compound 3]	0.03	0.25	0.5	0.13	–	8	0.13	0.13	0.03	0.03	8	–	–	–	–	–	–	–
CNC(=O)CC1NC(=O)c2csc(n2)-c2ccc(-c3nc(C4=NC(C(=O)N5CCCC5C(=O)N(C)CCN(C)CCN(C)C)CO4)cs3)nc2-c2csc(n2)-c2csc(n2)C(C(O)c2ccccc2)NC(=O)CNC(=O)c2nc(sc2COC)C(C(C)C)NC(=O)c2nc1sc2C (mixture of isomers) [Compound 15]	0.06	2	8	1	16	–	–	–	–	–	–	–	–	–	–	–	–	–
CNC(=O)CC1NC(=O)c2csc(n2)-c2ccc(-c3nc(C4=NC(C(=O)N5CCCC5C(=O)N(C)CCN5CCN(C)CC5)CO4)cs3)nc2-c2csc(n2)-c2csc(n2)C(C(O)c2ccccc2)NC(=O)CNC(=O)c2nc(sc2COC)C(C(C)C)NC(=O)c2nc1sc2C (mixture of isomers) [Compound 17]	0.06	0.5	4	0.5	8	–	–	–	–	–	–	–	–	–	–	–	–	–
CNC(=O)CC1NC(=O)c2csc(n2)-c2ccc(-c3nc(C4=NC(C(=O)N5CCCC5C(=O)N(C)CCN5CCN(CCO)CC5)CO4)cs3)nc2-c2csc(n2)-c2csc(n2)C(C(O)c2ccccc2)NC(=O)CNC(=O)c2nc(sc2COC)C(C(C)C)NC(=O)c2nc1sc2C (mixture of isomers) [Compound 18]	0.06	2	8	0.5	8	–	–	–	–	–	–	–	–	–	–	–	–	–
CCN(CC)CCNC(=O)C1CCCN1C(=O)C1COC(c2csc(-c3ccc4c(n3)-c3csc(n3)-c3csc(n3)C(C(O)c3ccccc3)NC(=O)CNC(=O)c3nc(sc3COC)C(C(C)C)NC(=O)c3nc(sc3C)C(CC(=O)NC)NC(=O)c3csc-4n3)n2)=N1 (stereo not drawn) [Compound 3s]	0.06	0.13	0.25	0.13	0.5	8	0.13	0.13	0.06	0.03	8	≤ 0.5	≤ 1.0	≤ 0.13	1.5	7	0.67	–
CNC(=O)CC1NC(=O)c2csc(n2)-c2ccc(-c3nc(C4=NC(C(=O)N5CCCC5C(N)=O)CO4)cs3)nc2-c2csc(n2)-c2csc(n2)C(C(C)C)NC(=O)CNC(=O)c2csc(n2)C(C(C)C)NC(=O)c2nc1sc2C (stereo not drawn) [amythiamicin factor A]	–	–	–	–	–	–	–	–	–	–	–	–	–	–	–	–	–	shows antimicrobial activity against gram positive bacteria

The next lines start with results.

MIC of the compounds, Staphylococcus aureus L165 [3] [µg/mL]	MIC of the compounds, Strept. sanguis L1721 (Strept. sanguis L1721) [µg/mL]	MIC of the compounds, Streptococcus pyogenes L49 [4] [µg/mL]	MIC of the compounds, Strept. pneumoniae L44 (Strept. pneumoniae L44) [µg/mL]	MIC of the compounds, Strept. agalactiae L310 (Strept. agalactiae L310) [µg/mL]	Structure (SMILES)	MIC of the compounds, Bacteroides fragilis ATCC 25285 L1011 [1] [µg/mL]	MIC of the compounds, Staph. epidermidis ATCC 12228 L147 [2] [µg/mL]	MIC of the compounds, Staph. haemolyticus L602 (Staph. haemolyticus L602) [µg/mL]	MIC of the compounds, Enterococc. faecalis ATCC 7080 L149 [5] [µg/mL]	MIC of the compounds, Propionibact. acnes ATCC 6919 L1014 [6] [µg/mL]	MIC of the compounds, Haemoph. influenzae ATCC 19418 L970 [7] [µg/mL]	MIC against staphylococci isolates (staphylococci isolates) [µg/mL]	MIC against streptococci isolates (streptococci isolates) [µg/mL]	MIC against enterococci isolates (enterococci isolates) [µg/mL]	ED50 in experimental septicemia, S. aureus (L819) (S. aureus (L819)) [mg/kg/dose]	ED50 in experimental septicemia, S. pyogenes (L49) (S. pyogenes (L49)) [mg/kg/dose]	ED50 in experimental septicemia, E. faecalis (L1139) (E. faecalis (L1139)) [mg/kg/dose]	antimicrobial activity against gram positive bacteria (gram positive bacteria)
0.06	0.25	1	0.25	–	CNC(=O)CC1NC(=O)c2csc(n2)-c2ccc(-c3nc(C4=NC(C(=O)N5CCCC5C(=O)N(C)CCN(C)C)CO4)cs3)nc2-c2csc(n2)-c2csc(n2)C(C(O)c2ccccc2)NC(=O)CNC(=O)c2nc(sc2COC)C(C(C)C)NC(=O)c2nc1sc2C (mixture of isomers) [Compound 5]	–	–	–	–	–	128	–	–	–	–	–	–	–
0.13	1	4	0.5	8	CNC(=O)CC1NC(=O)c2csc(n2)-c2ccc(-c3nc(C4=NC(C(=O)N5CCCC5C(=O)N5CCN(CCCN(C)C)CC5)CO4)cs3)nc2-c2csc(n2)-c2csc(n2)C(C(O)c2ccccc2)NC(=O)CNC(=O)c2nc(sc2COC)C(C(C)C)NC(=O)c2nc1sc2C (mixture of isomers) [Compound 16]	–	–	–	–	–	–	–	–	–	–	–	–	–
0.06	2	0.5	0.25	16	CNC(=O)CC1NC(=O)c2csc(n2)-c2ccc(-c3nc(C4=NC(C(=O)N5CCCC5C(=O)N5CCN(CCN6CCOCC6)CC5)CO4)cs3)nc2-c2csc(n2)-c2csc(n2)C(C(O)c2ccccc2)NC(=O)CNC(=O)c2nc(sc2COC)C(C(C)C)NC(=O)c2nc1sc2C (mixture of isomers) [Compound 19]	–	–	–	–	–	–	–	–	–	–	–	–	–
0.13	1	4	0.5	8	CNC(=O)CC1NC(=O)c2csc(n2)-c2ccc(-c3nc(C4=NC(C(=O)N5CCCC5C(=O)N5CCCC5CN(C)CCN(C)C)CO4)cs3)nc2-c2csc(n2)-c2csc(n2)C(C(O)c2ccccc2)NC(=O)CNC(=O)c2nc(sc2COC)C(C(C)C)NC(=O)c2nc1sc2C (mixture of isomers) [Compound 20]	–	–	–	–	–	–	–	–	–	–	–	–	–
